According to paper PMC9000570, “Thiazole/Thiadiazole/Benzothiazole Based Thiazolidin-4-One Derivatives as Potential Inhibitors of Main Protease of SARS-CoV-2” (Molecules, 2022):
pIC50: −log10 of the molar value.

What was measured:
SARS-CoV-2 3CL protease = SARS-CoV-2 3CL protease (Severe acute respiratory syndrome coronavirus 2, UniProt P0DTD1); test: biochemical; format: biochemical; conditions: for pIC50: dose range 0.005 to 50 µM
human normal MRC-5 cells = test: MTT cell viability assay; format: cell-based; conditions: 48 h
[1] = system: feline infectious peritonitis; conditions: upon treatment of FIP in cats; cited from earlier work

Row | Molecule | inhibition at 50 µM (SARS-CoV-2 3CL protease; 50 μM compound) | pIC50 (SARS-CoV-2 3CL protease) | inhibition of cellular viability (human normal MRC-5 cells; MRC-5, 0.01 μM) | inhibition of cellular viability (human normal MRC-5 cells; MRC-5, 0.1 μM) | inhibition of cellular viability (human normal MRC-5 cells; MRC-5, 1 μM) | inhibition of cellular viability (human normal MRC-5 cells; MRC-5, 10 μM) | other results
1 | O=C1CSC(c2ccc(Br)cc2)N1c1nc2ccc(C34CC5CC(CC(C5)C3)C4)cc2s1 (stereo not drawn) [m11, 3-(6-(adamantan-1-yl)benzo[d]thiazol-2-yl)-2-(4-bromophenyl)thiazolidin-4-one] | 45% | < 4.30 | 65.0% | 81.3% | 89.4% | 100% | melting point: 275 to 276 °C; inhibitory activity on main protease (in words) (SARS-CoV-2 3CL protease): moderate activity
2 | O=C1CSC(c2ccc(Cl)cc2)N1c1nc2ccc(OC(F)(F)F)cc2s1 (stereo not drawn) [h8] | 3.04% | < 4.30 |  |  |  |  | 
3 | N#Cc1ccc2nc(N3C(=O)CSC3c3c(F)cccc3Cl)sc2c1 (stereo not drawn) [k3] | 100% | 8.00 | 57% | 64% | 100% | 100% | 
4 | O=C1CSC(c2c(F)cccc2Cl)N1c1nc2ccc(C34CC5CC(CC(C5)C3)C4)cc2s1 (stereo not drawn) [m2] | 2.79% | < 4.30 |  |  |  |  | 
5 | CC(C)CC(NC(=O)OCc1ccccc1)C(=O)NC(CC1CCNC1=O)C(O)S(=O)(=O)O (stereo not drawn) [GC376] |  |  |  |  |  |  | side effects [1]: subcutaneous fibrosis, transient stinging at the injection sites, hair loss, and abnormal eruption of permanent teeth in juvenile cats
6 | COc1cccc2sc(N3C(=O)CSC3c3ccc([N+](=O)[O-])cc3)nc12 (stereo not drawn) [e2] | 31.3% | < 4.30 |  |  |  |  | 
7 | Cc1cc(C23CC4CC(CC(C4)C2)C3)cc2sc(N3C(=O)CSC3c3c(F)cccc3F)nc12 (stereo not drawn) [n2] | 100% | 5.00 | 20.8% | 73.4% | 90.7% | 100% | 
8 | O=C1CSC(c2ccc(F)cc2)N1c1nc2ccc(OC(F)(F)F)cc2s1 (stereo not drawn) [h6] | 25.2% | < 4.30 |  |  |  |  | 
9 | 3-(5,6-dichlorobenzo[d]thiazol-2-yl)-2-(4-fluorophenyl)thiazolidin-4-one [a3] |  | < 4.30 |  |  |  |  | % Inhibition at 50 μM (SARS-CoV-2 3CL protease; 50 μM compound): 0%
10 | O=C1CSC(c2c(F)cccc2Cl)N1c1nc2cccc(Cl)c2s1 (stereo not drawn) [a2] | 91.3% |  | 68.5% | 78.4% | 95.5% | 100% | 
11 | O=C1CSC(c2ccc(F)cc2)N1c1nc2ccc(F)cc2s1 (stereo not drawn) [b1] | 0% | < 4.30 |  |  |  |  | 
12 | O=C1CSC(c2ccc(F)cc2)N1c1nc2ccc(Cl)cc2s1 (stereo not drawn) [c1] | 88% | 5.32 | 31.0% | 43,0% | 36.1% | 80.3% | 
13 | O=C1CSC(c2c(F)cccc2F)N1c1nc2cccc(Cl)c2s1 (stereo not drawn) [a1] | 0% | < 4.30 |  |  |  |  | 
14 | O=C1CSC(c2ccc(F)cc2)N1c1nc2c(Cl)cccc2s1 (stereo not drawn) [d1] | 6.72% | < 4.30 |  |  |  |  | 
15 | O=C1CSC(c2ccc(O)cc2)N1c1nc2ccc(Cl)cc2s1 (stereo not drawn) [c5] | 7.87% | < 4.30 |  |  |  |  | inhibitory activity on main protease (in words) (SARS-CoV-2 3CL protease): inactive
